The values that follow come from ChEMBL document CHEMBL1127134, “Synthesis and antibacterial activity of (1R,5R,6R)-2-tert-butyl-6-(1-hydroxyethyl)oxapenem-3-carboxylic acid” (1993).

Assay [1] relates to Staphylococcus aureus. Description: Minimum inhibitory concentration required for the antibacterial activity against Staphylococcus aureus 25768. The format is functional.
Assay [2] relates to Staphylococcus aureus. Description: Minimum inhibitory concentration required for the antibacterial activity against Staphylococcus aureus 25464. The format is functional.
Assay [3] has as its system Staphylococcus aureus. The experiment in a line: Minimum inhibitory concentration required for the antibacterial activity against Staphylococcus aureus 25463. The format is functional.
Assay [4] has as its system Staphylococcus aureus. Description: Minimum inhibitory concentration required for the antibacterial activity against Staphylococcus aureus 41h Belgium. The format is functional.
Assay [5] relates to Staphylococcus aureus. The experiment in a line: Minimum inhibitory concentration required for the antibacterial activity against Staphylococcus aureus 79B Innsbruck. The format is functional.
Assay [6] relates to Staphylococcus aureus. Description: Minimum inhibitory concentration required for the antibacterial activity against Staphylococcus aureus 86 Innsbruck. The format is functional.
The subject of assay [7] is Staphylococcus aureus. Description: Minimum inhibitory concentration required for the antibacterial activity against Staphylococcus aureus 13N Munchen. The format is functional.
The subject of assay [8] is Staphylococcus aureus. Description: Minimum inhibitory concentration required for the antibacterial activity against Staphylococcus aureus 48N Munchen. The format is functional.
Assay [9] relates to Staphylococcus aureus. Description: Minimum inhibitory concentration required for the antibacterial activity against Staphylococcus aureus 21b Belgium. The format is functional.
Assay [10] has as its system Staphylococcus aureus. Description: Minimum inhibitory concentration required for the antibacterial activity against Staphylococcus aureus 1756. The format is functional. To be noted: Staphylococcus aureus; read-out: MIC.
For assay [11], the system named is Staphylococcus aureus. The experiment in a line: Minimum inhibitory concentration required for the antibacterial activity against Staphylococcus aureus 77 Innsbruck. The format is functional.
Assay [12] concerns Staphylococcus aureus. Description: Minimum inhibitory concentration required for the antibacterial activity against Staphylococcus aureus 25470. The format is functional.
Assay [13] deals with Staphylococcus aureus. Description: Minimum inhibitory concentration required for the antibacterial activity against Staphylococcus aureus 4978 Israel. The format is functional.
The test system of assay [14] is Staphylococcus aureus. The experiment in a line: Minimum inhibitory concentration required for the antibacterial activity against Staphylococcus aureus 25085. The format is functional.
The subject of assay [15] is Staphylococcus aureus. Description: Minimum inhibitory concentration required for the antibacterial activity against Staphylococcus aureus 17N Munchen. The format is functional.
Assay [16] has as its system Staphylococcus aureus. Description: Minimum inhibitory concentration required for the antibacterial activity against Staphylococcus aureus 90 Innsbruck. The format is functional.
The subject of assay [17] is Staphylococcus aureus. The experiment in a line: Minimum inhibitory concentration required for the antibacterial activity against Staphylococcus aureus 25697. The format is functional.
In assay [18] the test system is Bacteroides thetaiotaomicron. Description: Minimum inhibitory concentration required for the antibacterial activity against Bacillus thetaiotaomicron 235 Munchen. The format is functional.
Assay [19] concerns Bacteroides thetaiotaomicron. The experiment in a line: Minimum inhibitory concentration required for the antibacterial activity against Bacillus thetaiotaomicron DSM 2079. The format is functional.
Assay [20] has as its system Peptostreptococcus anaerobius. Description: Minimum inhibitory concentration required for the antibacterial activity against Peptostrept. anaer. DSM 20357. The format is functional.
Assay [21] deals with Clostridium perfringens. The experiment in a line: Minimum inhibitory concentration required for the antibacterial activity against Clostridium perfringens 24072. The format is functional.
The test system of assay [22] is Clostridium perfringens. Description: Minimum inhibitory concentration required for the antibacterial activity against Clostridium perfringens DSM 756. The format is functional.
Assay [23] deals with Anaerococcus prevotii. The experiment in a line: Minimum inhibitory concentration required for the antibacterial activity against Peptococcus prevotii DSM 20548. The format is functional.
The test system of assay [24] is Clostridium perfringens. Description: Minimum inhibitory concentration required for the antibacterial activity against Clostridium perfringens 1024027. The format is functional.
Assay [25] relates to Parabacteroides distasonis. Description: Minimum inhibitory concentration required for the antibacterial activity against Bacillus distasonis Heidelberg. The format is functional.
The subject of assay [26] is Bacteroides fragilis. Description: Minimum inhibitory concentration required for the antibacterial activity against Bacillus fragilis DSM 2151. The format is functional.
Assay [27] concerns Bacteroides ovatus. Description: Minimum inhibitory concentration required for the antibacterial activity against Bacillus ovatus Heidelberg. The format is functional, bacillus ovatu.
For assay [28], the system named is Bacteroides fragilis. Description: Minimum inhibitory concentration required for the antibacterial activity against Bacillus fragilis 010848. The format is functional.
The subject of assay [29] is Peptostreptococcus anaerobius. Description: Minimum inhibitory concentration required for the antibacterial activity against Peptostrept. anaer. 222 I/82. The format is functional.
Assay [30] relates to Fusobacterium nucleatum. The experiment in a line: Minimum inhibitory concentration required for the antibacterial activity against Fusobacterium nucleatum DSM 20482. The format is functional.
In assay [31] the test system is Bacteroides fragilis. The experiment in a line: Minimum inhibitory concentration required for the antibacterial activity against Bacillus fragilis 06688. The format is functional.
Assay [32] relates to Fusobacterium necrophorum. Description: Minimum inhibitory concentration required for the antibacterial activity against Sphaerophorus necrophorus Kr. The format is functional.
In assay [33] the test system is Prevotella melaninogenica. The experiment in a line: Minimum inhibitory concentration required for the antibacterial activity against Bacillus melaninogenicus Kr. The format is functional.
For assay [34], the system named is Peptostreptococcus anaerobius. The experiment in a line: Minimum inhibitory concentration required for the antibacterial activity against Peptostrept. anaer. Kr II. The format is functional.
For assay [35], the system named is Bacteroides fragilis. Description: Minimum inhibitory concentration required for the antibacterial activity against Bacillus fragilis L 1168 Italien. The format is functional.
For assay [36], the system named is Peptoniphilus asaccharolyticus. Description: Minimum inhibitory concentration required for the antibacterial activity against Peptococcus asacchar. DSM 20463. The format is functional.
Assay [37] has as its system Bacteroides fragilis. Description: Minimum inhibitory concentration required for the antibacterial activity against Bacillus fragilis GA I - 0558 Japan. The format is functional.
Assay [38] concerns Clostridium sporogenes. Description: Minimum inhibitory concentration required for the antibacterial activity against Clostridium sporogenes. The format is functional.
In assay [39] the test system is Bacteroides fragilis. Description: Minimum inhibitory concentration required for the antibacterial activity against Bacillus fragilis 4661 Kr. The format is functional.
Assay [40] deals with Clostridium butyricum. The experiment in a line: Minimum inhibitory concentration required for the antibacterial activity against Clostridium butyricum. The format is functional.
In assay [41] the test system is Bacteroides fragilis. The experiment in a line: Minimum inhibitory concentration required for the antibacterial activity against Bacillus fragilis Kr 1 TV. The format is functional.
Assay [42] has as its system Clostridium septicum. Description: Minimum inhibitory concentration required for the antibacterial activity against Clostridium septicum. The format is functional.
For assay [43], the system named is Bacteroides fragilis. The experiment in a line: Minimum inhibitory concentration required for the antibacterial activity against Bacillus fragilis 4891/91 Kr. The format is functional.
Assay [44] concerns Clostridium perfringens. The experiment in a line: Minimum inhibitory concentration required for the antibacterial activity against Clostridium perfringens 24071. The format is functional.
Assay [45] deals with Bacteroides fragilis. Description: Minimum inhibitory concentration required for the antibacterial activity against Bacillus fragilis Kr II. The format is functional.
For assay [46], the system named is Peptostreptococcus anaerobius. Description: Minimum inhibitory concentration required for the antibacterial activity against Peptostrept. anaer. Kr I. The format is functional.
Assay [47] deals with Prevotella melaninogenica. The experiment in a line: Minimum inhibitory concentration required for the antibacterial activity against Bacillus melaninogenicus Heidelberg. The format is functional.
Assay [48] deals with Parabacteroides distasonis. Description: Minimum inhibitory concentration required for the antibacterial activity against Bacillus distasonis Kr. The format is functional.
Assay [49] relates to Thomasclavelia ramosa. The experiment in a line: Minimum inhibitory concentration required for the antibacterial activity against Clostridium ramosum DSM 1402. The format is functional.
In assay [50] the test system is Bacteroides fragilis. The experiment in a line: Minimum inhibitory concentration required for the antibacterial activity against Bacillus fragilis ES 25. The format is functional.
Assay [51] relates to Phocaeicola vulgatus. The experiment in a line: Minimum inhibitory concentration required for the antibacterial activity against Bacillus valgatus Kr III. The format is functional.
The test system of assay [52] is Bacteroides fragilis. The experiment in a line: Minimum inhibitory concentration required for the antibacterial activity against Bacillus fragilis 1560 I/82. The format is functional.
Assay [53] has as its system Bacteroides fragilis. The experiment in a line: Minimum inhibitory concentration required for the antibacterial activity against Bacillus fragilis 2034/35 Kr 43. The format is functional.

≈ marks a conversion by molar mass, not a printed value.

For the compound `O=C(O)c1cn(C2CC2)c2cc(N3CCNCC3)c(F)cc2c1=O` [CIPROFLOXACIN], the MIC (as a rule, the lowest concentration that inhibits growth of the organism) is 100 µg/mL (≈ 302 µM) in assay [1]; not above 0.78 µg/mL in [2]; 1.56 µg/mL (≈ 4.71 µM) in [3]; 100 µg/mL (≈ 302 µM) in assay [4]; 100 µg/mL (≈ 302 µM) in [5]; 100 µg/mL (≈ 302 µM) in [6]. In addition, the minimal inhibitory concentration (MIC) in assay [7] is 1.56 µg/mL (≈ 4.71 µM); in assay [8], 12.5 µg/mL (≈ 37.7 µM); in assay [9] it was 50 µg/mL (≈ 151 µM); in assay [10], not above 0.78 µg/mL; in assay [11], more than 100 µg/mL; in assay [12], not above 0.78 µg/mL. Also, the MIC in [13] is not above 0.78 µg/mL; in [14], not above 0.78 µg/mL; in [15], 12.5 µg/mL (≈ 37.7 µM); in assay [16], 12.5 µg/mL (≈ 37.7 µM); in assay [17], 12.5 µg/mL (≈ 37.7 µM).

Consider `CC1(C)S[C@@H]2[C@H](NC(=O)[C@H](N)c3ccccc3)C(=O)N2[C@H]1C(=O)O` [AMPICILLIN], for which the minimum inhibitory concentration (MIC) in [1], in assay [2], in [3], in assay [4], in assay [5] and in assay [6] was 50 µg/mL (≈ 143 µM) throughout. In addition, the MIC in assay [7] is 50 µg/mL (≈ 143 µM); in assay [8], 50 µg/mL (≈ 143 µM); in assay [9], more than 100 µg/mL; in assay [10] it was 50 µg/mL (≈ 143 µM); in assay [11], 50 µg/mL (≈ 143 µM); in assay [12] it was 50 µg/mL (≈ 143 µM). Also, the minimal inhibitory concentration (MIC) is 1.56 µg/mL (≈ 4.46 µM) in assay [13]; 50 µg/mL (≈ 143 µM) in assay [14]; 25 µg/mL (≈ 71.5 µM) in assay [15]; 50 µg/mL (≈ 143 µM) in assay [16]; 25 µg/mL (≈ 71.5 µM) in [17].

On to `CC1(C)S[C@@H]2[C@H](NC(=O)[C@H](NC(=O)N3CCN(S(C)(=O)=O)C3=O)c3ccccc3)C(=O)N2[C@H]1C(=O)O` [MEZLOCILLIN], for which the MIC amounted to 25 µg/mL (≈ 46.3 µM) in assay [1]; 100 µg/mL (≈ 185 µM) in [2]; 12.5 µg/mL (≈ 23.2 µM) in assay [3]; 3.12 µg/mL (≈ 5.78 µM) in assay [4]; 50 µg/mL (≈ 92.7 µM) in [5]; 50 µg/mL (≈ 92.7 µM) in [6]. The MIC in assay [7] is 50 µg/mL (≈ 92.7 µM); in assay [8], 12.5 µg/mL (≈ 23.2 µM); in [9] it was 50 µg/mL (≈ 92.7 µM); in assay [10], 50 µg/mL (≈ 92.7 µM); in assay [11] it was 100 µg/mL (≈ 185 µM); in [12], 25 µg/mL (≈ 46.3 µM). Also, the MIC is 3.12 µg/mL (≈ 5.78 µM) in assay [13]; 50 µg/mL (≈ 92.7 µM) in [14]; 12.5 µg/mL (≈ 23.2 µM) in assay [15]; more than 100 µg/mL in assay [16]; 25 µg/mL (≈ 46.3 µM) in [17].

`CCn1cc(C(=O)O)c(=O)c2cc(F)c(N3CCNCC3)cc21` [NORFLOXACIN]: the MIC is more than 16 µg/mL in assay [18]; more than 16 µg/mL in assay [19]; more than 16 µg/mL in [20]; 4 µg/mL (≈ 12.5 µM) in assay [21]; more than 16 µg/mL in [22]; more than 16 µg/mL in [23]. Besides, the minimal inhibitory concentration (MIC) was 2 µg/mL (≈ 6.26 µM) in [24]; more than 16 µg/mL in [25]; more than 16 µg/mL in [26]; more than 16 µg/mL in assay [27]; more than 16 µg/mL in assay [28]; more than 16 µg/mL in [29]. The MIC in [30] was 16 µg/mL (≈ 50.1 µM); in assay [31], more than 16 µg/mL; in assay [32] it was 2 µg/mL (≈ 6.26 µM); in [33], 16 µg/mL (≈ 50.1 µM); in [34], 2 µg/mL (≈ 6.26 µM); in assay [35], more than 16 µg/mL. The MIC in assay [36] was 4 µg/mL (≈ 12.5 µM); in assay [37] it was more than 16 µg/mL; in assay [38], 16 µg/mL (≈ 50.1 µM); in assay [39], more than 16 µg/mL; in assay [40], 16 µg/mL (≈ 50.1 µM); in [41], more than 16 µg/mL. Also, the minimum inhibitory concentration (MIC) is 16 µg/mL (≈ 50.1 µM) in assay [42]; more than 16 µg/mL in [43]; 4 µg/mL (≈ 12.5 µM) in assay [44]; more than 16 µg/mL in assay [45]; more than 16 µg/mL in assay [46]; more than 16 µg/mL in assay [47]. For the same compound, the minimal inhibitory concentration (MIC) in assay [48], in assay [49], in [50], in [51], in assay [52] and in assay [53] was more than 16 µg/mL throughout.
